Test results reported in patent publication US20030203969A1, “Pharmaceutically active aromatic guanylhydrazones” (priority 2000, published 2003).
Where two headings read alike, the source gives them in different places.

Key:
[1] = system: NRTI + PI-resistant HIV-1; experiment: Inhibition of multiple anti-retroviral drug resistant HIV-1 strains: NRTI + PI-resistant; type: cell-based
Procedure: In addition, various different “types” of multiple anti-retroviral drug resistant HIV-1 strains were also tested: […]

P3HR-1 cells = experiment: Compound toxicity in P3HR-1 cells (Cell Titer Aqueous One); type: cell-based, human; conditions: P3HR1 cells; read-out: TC50 (the source's name)
Procedure: Human P3HR-1 cells are latently infected with EBV. Culturing these cells in the presence of phorbol ester induces a lytic infection cycle, resulting in stimulation of viral replication within the cells. Compound efficacy in this assay is determined using TaqMan PCR technology, and compound toxicity is measured by addition of Promega's Cell Titer Aqueous One Solution (metabolic dye).
6. Duplicate plates are set up plating media in place of TPA for evaluation of compound toxicity.
6. Twenty micorliters of Cell Titer Aqueous One Solution (Promega) is added to each well of the toxicity plates. Plates are incubated at 37° C. in a humidified CO2 incubator for 4 hours or until sufficient color development has occurred. Plates are read on a VMax microtiter plate reader at a wavelength of 490/650 nm. Toxicity of the test compound is determined by comparing the optical density of test wells with that of control wells.

HepG2-2.2.15 cells = experiment: Cell viability of HepG2-2.2.15 cells (dye uptake); type: cell-based, human; conditions: inhibits cell growth by 50%, read-out: TC50 (the source's name)
Procedure: (§1) Human HepG2-2.2.15 cells (ATCC Cat. No. CRL-11997), chronically infected with HBV, are plated in 96-well microtiter plates in DMEM medium supplemented with fetal bovine serum. After incubation at 37° C. in a humidified, 5% CO2 environment for 16-24 hours, the monolayer of HepG2-2.2.15 cells is washed and the medium is replaced with complete medium containing various concentrations of test compound. Every three days during the experiments, the culture medium is replaced with fresh medium containing the appropriately diluted test compound. Six days following the initial administration of the test compound, the cell culture supernatant is collected and clarified by centrifugation. The cell viability is evaluated by a dye uptake procedure (Promega's Cell Titer Aqueous One Solution). Virion-associated HBV DNA present in the tissue culture supernatant is amplified employing PCR technology using primer pairs derived from the HBV strain ayw. Subsequently, the PCR-amplified HBV DNA is detected in real-time by monitoring increases in fluorescence signals that result from exonucleolytic degradation of a quenched fluorescent probe molecule following hybridization of the probe to the amplified HBV DNA (TaqMan; Perkin-Elmer).

[2] = target: T1, deoxyhypusine synthase (DHS) (Homo sapiens, UniProt P49366); experiment: In vitro DHS screening assay (hypusine formation on eIF-5A); type: biochemical
T1 construct: made in house; host or cells: E. coli BL21 (DE3), pGex vector
T1 sequence (P49366 1-369): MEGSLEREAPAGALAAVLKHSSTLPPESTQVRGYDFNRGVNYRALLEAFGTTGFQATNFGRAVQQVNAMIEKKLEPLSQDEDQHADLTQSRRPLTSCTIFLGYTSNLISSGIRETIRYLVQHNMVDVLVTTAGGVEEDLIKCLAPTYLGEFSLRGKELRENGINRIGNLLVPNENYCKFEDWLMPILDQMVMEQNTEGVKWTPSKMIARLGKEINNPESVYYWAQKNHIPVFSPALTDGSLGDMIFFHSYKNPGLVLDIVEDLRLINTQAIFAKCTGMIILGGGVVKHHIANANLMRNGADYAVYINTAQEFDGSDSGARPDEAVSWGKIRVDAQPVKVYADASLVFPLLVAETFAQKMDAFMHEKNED

[3] = system: omni-drug-resistant HIV-1; experiment: Inhibition of omni-drug-resistant HIV-1 in PM1 cells (p24); type: cell-based
Procedure: PM1 cells were infected with an “omni-drug-resistant HIV-1” (recombinant HIV-1 NL4-3 in which the Protease gene and the 5′ part of the Reverse Transcriptase gene was replaced by the corresponding sequences from a omni-drug-resistant clinical isolate, resistant to all currently available anti-HIV drugs. Infected cells were incubated with Compound No. 4 at a concentration of 250, 500 and 1000 nM or DMSO (control). The culture medium was changed every third day. Cell viability (Trypan-blue staining), cell counts and p24 levels were determined at day 6 and 12.
At day 12 of infection, the virus replicated vigorously in untreated cultures. Numbers describe percent inhibition of HIV-1 replication as compared to control experiments.

E. Coli XL-1 blue strain = experiment: Growth assay for E. coli (optical density at 610 nm); type: cell-based; conditions: LB medium, 37° C., one day; read-out: IC50 (μM) E. coli proliferation
Procedure: We used the E. Coli XL-1 blue strain (Stratagene) for the investigation of antibacterial activity. During this experiments LB medium was used for E. coil growth. LB was prepared as follows: 1% trypton (weight/volume), 0.5% Yeast extract (weight/volume), and 1.5% NaCl (weight/volume) were dissolved in water and autoclaved. The media contained the inhibitor at 100 μM, 10 μM, or 1 μM concentrations, respectively.
The assay was performed as follows: bacteria were seeded to 96-well plates containing the respective inhibitors. The bacteria-containing plates were incubated at 37° C. for one day. After incubation time, E. coli growth was assayed by the measurement of the optical density at 610 nm wavelength.

HBV = HBV replication in chronically infected HepG2 2.2.15 cells (TaqMan PCR of HBV DNA); type: cell-based, Hepatitis B virus; conditions: for IC50: chronically HBV-infected HepG2 2.2.15 cells
Procedure: as §1

With `CC(=NNC(=N)N)c1cc(NC(=O)CCCCCCCCC(=O)Nc2cc(C(C)=NNC(=N)N)cc(C(C)=NNC(=N)N)c2)cc(C(C)=NNC(=N)N)c1` [Compound 4, N,N′-bis (3,5-diacetylphenyl) decane diamide tetrakis (amidinohydrazone)] the “[%] inhibition of virus replication” value ([1]; NRTI + PI-resistant HIV-1, 0.5 μM) was 68%, the “[%] inhibition of virus replication” value ([1]; NRTI + PI-resistant HIV-1, 1.0 μM) was 73% and the CC50 (P3HR-1 cells) was 21.8 µM. The CC50 (HepG2-2.2.15 cells) was > 20 µM, the “inhibition of the hypusine formation on the elF-5A protein” value [2] was “potent inhibitors” and the “percent inhibition of HIV-1 replication as compared to control” value (shortened to “percent inhibition of HIV-1 replication”) ([3]; omni-drug-resistant HIV-1, 0.25 μM, d6) was 15%. The “percent inhibition of HIV-1 replication” value ([3]; omni-drug-resistant HIV-1, 0.25 μM, d12) was 64%, the “percent inhibition of HIV-1 replication” value ([3]; omni-drug-resistant HIV-1, 0.5 μM, d6) was 30% and the “percent inhibition of HIV-1 replication” value ([3]; omni-drug-resistant HIV-1, 0.5 μM, d12) was 95%. The “percent inhibition of HIV-1 replication” value ([3]; omni-drug-resistant HIV-1, 1.0 μM, d6) was 58%, the “percent inhibition of HIV-1 replication” value ([3]; omni-drug-resistant HIV-1, 1.0 μM, d12) was 97% and the IC50 (E. Coli XL-1 blue strain) was 1 µM. For the same compound, the Comments (HBV; HBV, HepG2 2.2.15 cells) was “Active”, the IC50 (HBV; six days, read-out: IC50 (μM) Virion-DNA) was 3.19 µM and the IC50 (HBV; read-out: IC50 (μM) Intracellular Viral DNA) was 4.96 µM.
